According to patent US11390637B2, “Salts of antiviral phosphonate analogues and process for preparation thereof” (CIPLA LIMITED, priority 2017, dated 2022):
Counter-ions that a name gives are not always drawn.

What was measured:
[1] = In-vitro intrinsic dissolution of 200 mg pellets of API without excipients; format: physicochemical; conditions: for % release of Compound (I) from the respective Salts: Table 8; for % release of Compound (I) from the respective Salts / % release of active from fumarate salt pellet: 200 mg pellet, 0.01N HCl, 37° C., paddle 75 rpm; for % release of active from fumarate salt pellet: Table 7; for dissolution profile compared to other salts: from the data of Table 8
Method: A tableting mixture (200 mg) comprising solely salts of (((1-(6-amino-9H-purin-9-yl)propan-2-yloxy)methyl) (phenoxy) phosphoryloxy) methyl pivalate-prepared according to any one of the examples 1 to 10 (i.e. with no excipients) was prepared and compressed to a pellet using an automatic KBR press operating at a compression pressure of 2 tones for 2 minutes.
Similarly a tableting mixture (200 mg) comprising a solely TAF (i.e. with no excipients) was prepared and compressed to a pellet using an automatic KBR press operating at a compression pressure of 2 tones for 2 minutes.
A tableting mixture (200 mg) comprising solely TDF (i.e. with no excipients) was prepared and compressed to a pellet using an automatic KBR press operating at a compression pressure of 2 tones for 2 minutes.
In-vitro dissolution studies were performed on the 200 mg pellet in a LAB INDIA DISSO 2000.
The pellet was fixed in a PFTE holder, such that only the pellet surface came into contact with the dissolution medium. The PFTE loaded holder was placed in the dissolution vessel containing 900 ml of 0.1M of HCl having […] at 37±0.5° C. Two pellets were measured for each run of the design of the experiments. Stirring was performed with a paddle rotating at 75 rpm. […]
Dissolution Media: 0.01N HCl
Bath temperature: 37.5° C.
Sample Preparation: Pellets were prepared by pressing sample with 2 ton pressure for 2 min
Note: Aliquots were analysed on HPLC.
The concentration of (((1-(6-amino-9H-purin-9-yl)propan-2-yloxy)methyl) (phenoxy) phosphoryloxy) methyl pivalate was quantified by HPLC UV method at a maximum wavelength of 300 nm under the conditions as specified below:
Standard Preparation: 25 mg standard dissolved to 25 ml with dissolution medium. 5 ml of this solution diluted to 25 ml with dissolution medium. Further 5 ml of this solution was diluted to 10 ml with diluent.
Sample Preparation: 200 mg of Sample pellets were prepared and subjected to dissolution. 10 ml of Aliquot was removed from the dissolution basket at predetermined time intervals. 5 ml of these aliquot was diluted to 10 ml with Diluent.
200 mg of input API of fumarate salt of (((1-(6-amino-9H-purin-9-yl)propan-2-yloxy)methyl) (phenoxy) phosphoryloxy) methyl pivalate used for pellet preparation.
The percentage of (((1-(6-amino-9H-purin-9-yl)propan-2-yloxy)methyl) (phenoxy) phosphoryloxy) methyl pivalate (TD), Tenofovir Alafenamide (TAF) and Tenofovir Disoproxil (TDF) released from the respective fumarate salt tablet were plotted against time as shown in FIG. 19. The intrinsic dissolution rate was derived from the slope of this curve.
To measure the intrinsic dissolution of the Salts of (((1-(6-amino-9H-purin-9-yl)propan-2-yloxy)methyl) (phenoxy) phosphoryloxy) methyl pivalate, samples were measured to compare the influence of the different parameter settings. At appropriate time intervals, an automated sample collector removes aliquots from the dissolution medium for analysis. The time interval for sampling can vary, for example, from 5 to 120 minutes, depending on the properties of the drug and dissolution medium used. Suitable dissolution equipment for these operations includes LAB INDIA DISSO 2000. Bath temperature—37.5° C.
200 mg of input API of each fumarate, oxalate, phosphate, citrate, succinate and tartrate Salts of (((1-(6-amino-9H-purin-9-yl)propan-2-yloxy)methyl) (phenoxy) phosphoryloxy) methyl pivalate used for pellet preparation.
The percentage of (((1-(6-amino-9H-purin-9-yl)propan-2-yloxy)methyl) (phenoxy) phosphoryloxy) methyl pivalate released from the respective salts tablet were plotted against time as shown in FIG. 20. The intrinsic dissolution rate was derived from the slope of this curve.

[2] = Hygroscopicity (statement, no method described); format: physicochemical; conditions: in words
[3] = Solubility in physiologically acceptable solvents (statement, no method described); conditions: in words

Structure (SMILES): CC(Cn1cnc2c(N)ncnc21)OCP(=O)(OCOC(=O)C(C)(C)C)Oc1ccccc1.O=C(O)CC(O)(CC(=O)O)C(=O)O (stereo not shown) [Citrate, (((1-(6-amino-9H-purin-9-yl)propan-2-yloxy)methyl) (phenoxy)phosphoryloxy) methyl pivalate citric acid salt]
- % release of Compound (I) from the respective Salts ([1]; 5 min): 4%
- % release of Compound (I) from the respective Salts ([1]; 15 min): 12%
- % release of Compound (I) from the respective Salts ([1]; 30 min): 23%
- % release of Compound (I) from the respective Salts ([1]; 45 min): 33%
- % release of Compound (I) from the respective Salts ([1]; 60 min): 42%
- % release of Compound (I) from the respective Salts ([1]; 90 min): 63%
- % release of Compound (I) from the respective Salts ([1]; 120 min): 70%
- % release of Compound (I) from the respective Salts ([1]; 150 min): 66%
- % release of Compound (I) from the respective Salts ([1]; 180 min): 67%
- % release of Compound (I) from the respective Salts ([1]; 210 min): 66%
- % release of Compound (I) from the respective Salts ([1]; 240 min): 69%
- hygroscopicity [2]: not hygroscopic
- solubility in physiologically acceptable solvents [3]: readily soluble

Structure (SMILES): CC(Cn1cnc2c(N)ncnc21)OCP(=O)(OCOC(=O)C(C)(C)C)Oc1ccccc1.O=C(O)/C=C/C(=O)O (stereo not shown) [Fumarate, (((1-(6-amino-9H-purin-9-yl)propan-2-yloxy)methyl) (phenoxy)phosphoryloxy) methyl pivalate fumaric acid salt]
- % release of active from fumarate salt pellet ([1]; 5 min): 7%
- % release of Compound (I) from the respective Salts ([1]; 5 min): 3%
- % release of active from fumarate salt pellet ([1]; 10 min): 5%
- % release of active from fumarate salt pellet ([1]; 15 min): 6%
- % release of Compound (I) from the respective Salts ([1]; 15 min): 7%
- % release of active from fumarate salt pellet ([1]; 30 min): 12%
- % release of Compound (I) from the respective Salts ([1]; 30 min): 12%
- % release of active from fumarate salt pellet ([1]; 45 min): 18%
- % release of Compound (I) from the respective Salts ([1]; 45 min): 18%
- % release of active from fumarate salt pellet ([1]; 60 min): 24%
- % release of Compound (I) from the respective Salts ([1]; 60 min): 24%
- % release of active from fumarate salt pellet ([1]; 90 min): 35%
- % release of Compound (I) from the respective Salts ([1]; 90 min): 35%
- % release of active from fumarate salt pellet ([1]; 120 min): 45%
- % release of Compound (I) from the respective Salts ([1]; 120 min): 45%
- % release of Compound (I) from the respective Salts ([1]; 150 min): 56%
- % release of Compound (I) from the respective Salts ([1]; 180 min): 66%
- % release of Compound (I) from the respective Salts ([1]; 210 min): 75%
- % release of Compound (I) from the respective Salts ([1]; 240 min): 83%
- dissolution profile compared with TAF and TDF ([1]; in words, from the data of Table 7): slow dissolution profile than TAF and TDF

Structure (SMILES): CC(Cn1cnc2c(N)ncnc21)OCP(=O)(OCOC(=O)C(C)(C)C)Oc1ccccc1.O=C(O)C(=O)O (stereo not shown) [Oxalate, (((1-(6-amino-9H-purin-9-yl)propan-2-yloxy)methyl) (phenoxy)phosphoryloxy) methyl pivalate oxalic acid salt]
- % release of Compound (I) from the respective Salts ([1]; 5 min): 2%
- % release of Compound (I) from the respective Salts ([1]; 15 min): 4%
- % release of Compound (I) from the respective Salts ([1]; 30 min): 7%
- % release of Compound (I) from the respective Salts ([1]; 45 min): 10%
- % release of Compound (I) from the respective Salts ([1]; 60 min): 15%
- % release of Compound (I) from the respective Salts ([1]; 90 min): 23%
- % release of Compound (I) from the respective Salts ([1]; 120 min): 31%
- % release of Compound (I) from the respective Salts ([1]; 150 min): 40%
- % release of Compound (I) from the respective Salts ([1]; 180 min): 46%
- % release of Compound (I) from the respective Salts ([1]; 210 min): 53%
- % release of Compound (I) from the respective Salts ([1]; 240 min): 60%
- dissolution profile compared to other salts ([1]; in words): slowest dissolution profile
- hygroscopicity [2]: not hygroscopic
- solubility in physiologically acceptable solvents [3]: readily soluble

Structure (SMILES): CC(Cn1cnc2c(N)ncnc21)OCP(=O)(OCOC(=O)C(C)(C)C)Oc1ccccc1.O=P(O)(O)O (stereo not shown) [Phosphate, (((1-(6-amino-9H-purin-9-yl)propan-2-yloxy)methyl) (phenoxy)phosphoryloxy) methyl pivalate phosphoric acid salt]
- % release of Compound (I) from the respective Salts ([1]; 5 min): 19%
- % release of Compound (I) from the respective Salts ([1]; 15 min): 59%
- % release of Compound (I) from the respective Salts ([1]; 30 min): 103%
- % release of Compound (I) from the respective Salts ([1]; 45 min): 104%
- % release of Compound (I) from the respective Salts ([1]; 60 min): 105%
- % release of Compound (I) from the respective Salts ([1]; 90 min): 105%
- % release of Compound (I) from the respective Salts ([1]; 120 min): 106%
- % release of Compound (I) from the respective Salts ([1]; 150 min): 105%
- % release of Compound (I) from the respective Salts ([1]; 180 min): 104%
- % release of Compound (I) from the respective Salts ([1]; 210 min): 104%
- % release of Compound (I) from the respective Salts ([1]; 240 min): 105%
- dissolution profile compared to other salts ([1]; in words): fastest dissolution profile
- hygroscopicity [2]: not hygroscopic
- solubility in physiologically acceptable solvents [3]: readily soluble

Structure (SMILES): CC(C)OC(=O)[C@H](C)N[P@](=O)(CO[C@H](C)Cn1cnc2c(N)ncnc21)Oc1ccccc1 [TAF, Tenofovir Alafenamide Fumarate, reference compound]
- % release of active from fumarate salt pellet ([1]; 5 min): 6%
- % release of active from fumarate salt pellet ([1]; 10 min): 7%
- % release of active from fumarate salt pellet ([1]; 15 min): 9%
- % release of active from fumarate salt pellet ([1]; 30 min): 16%
- % release of active from fumarate salt pellet ([1]; 45 min): 24%
- % release of active from fumarate salt pellet ([1]; 60 min): 31%
- % release of active from fumarate salt pellet ([1]; 90 min): 46%
- % release of active from fumarate salt pellet ([1]; 120 min): 60%

Structure (SMILES): CC(C)OC(=O)OCOP(=O)(CO[C@H](C)Cn1cnc2c(N)ncnc21)OCOC(=O)OC(C)C [TDF, Tenofovir Disoproxil Fumarate, reference compound]
- % release of active from fumarate salt pellet ([1]; 5 min): 8%
- % release of active from fumarate salt pellet ([1]; 10 min): 5%
- % release of active from fumarate salt pellet ([1]; 15 min): 7%
- % release of active from fumarate salt pellet ([1]; 30 min): 13%
- % release of active from fumarate salt pellet ([1]; 45 min): 19%
- % release of active from fumarate salt pellet ([1]; 60 min): 26%
- % release of active from fumarate salt pellet ([1]; 90 min): 37%
- % release of active from fumarate salt pellet ([1]; 120 min): 50%

Structure (SMILES): CC(Cn1cnc2c(N)ncnc21)OCP(=O)(OCOC(=O)C(C)(C)C)Oc1ccccc1.O=C(O)C(O)C(O)C(=O)O (stereo not shown) [Tartrate, (((1-(6-amino-9H-purin-9-yl)propan-2-yloxy)methyl) (phenoxy)phosphoryloxy) methyl pivalate tartaric acid salt]
- % release of Compound (I) from the respective Salts ([1]; 5 min): 2%
- % release of Compound (I) from the respective Salts ([1]; 15 min): 6%
- % release of Compound (I) from the respective Salts ([1]; 30 min): 12%
- % release of Compound (I) from the respective Salts ([1]; 45 min): 17%
- % release of Compound (I) from the respective Salts ([1]; 60 min): 24%
- % release of Compound (I) from the respective Salts ([1]; 90 min): 35%
- % release of Compound (I) from the respective Salts ([1]; 120 min): 47%
- % release of Compound (I) from the respective Salts ([1]; 150 min): 59%
- % release of Compound (I) from the respective Salts ([1]; 180 min): 70%
- % release of Compound (I) from the respective Salts ([1]; 210 min): 80%
- % release of Compound (I) from the respective Salts ([1]; 240 min): 88%
